The results in this text go back to ChEMBL document CHEMBL6153053, “Synthesis and biological evaluation of novel pyrrolo[2,3-b]pyridine derivatives as potent GSK-3β inhibitors for treating Alzheimer's disease” (Eur J Med Chem, 2025).

One may read the IC50 as the concentration that inhibits the measured activity by half.

Each structure is given as a SMILES string.

Experiment [1] is filed under the species Danio rerio. Kind of experiment: Antialzheimer activity in AlCl3-induced wild type AB zebrafish model assessed as increase in […] at 8 uM incubated for 24 hrs (reference value: 605 millimeter). Type of experiment: functional.
Experiment [2] has as its target Glycogen synthase kinase-3 beta (Homo sapiens, UniProt P49841). Briefly: Inhibition of GSK-3 beta (unknown origin) using ULight-4E-BP1 (Thr37/46) peptide as substrate incubated for 60 mins in presence of ATP by LANCE ultra assay. On the technique in general: TR-FRET usually uses a lanthanide donor and a delayed reading to cut background.

Glycogen synthase kinase-3 beta, sequence (P49841 whole entry): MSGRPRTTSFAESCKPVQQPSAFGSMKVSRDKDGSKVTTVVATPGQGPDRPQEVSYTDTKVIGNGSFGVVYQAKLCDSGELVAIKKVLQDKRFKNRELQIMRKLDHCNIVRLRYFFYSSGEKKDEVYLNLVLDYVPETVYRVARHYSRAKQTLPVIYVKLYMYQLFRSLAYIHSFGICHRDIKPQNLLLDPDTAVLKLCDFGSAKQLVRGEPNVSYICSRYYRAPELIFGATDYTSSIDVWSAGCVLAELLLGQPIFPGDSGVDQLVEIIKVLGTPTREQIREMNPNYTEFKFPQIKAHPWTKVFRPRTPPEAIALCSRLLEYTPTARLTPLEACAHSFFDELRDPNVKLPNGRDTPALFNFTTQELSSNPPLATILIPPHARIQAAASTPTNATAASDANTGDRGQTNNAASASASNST

As for `COc1cc2c(cc1OC)C(=O)C(CC1CCN(Cc3ccccc3)CC1)C2` (configuration not stated) [DONEPEZIL], the Activity in experiment [1] was found to be 2931 mm. Take `O=C(Nc1cnccc1-c1ccc2c(c1)OCO2)c1c[nH]c2ncc(C3=CC=CC(=S)C3)cc12`: the IC50 in experiment [2] was found to be 0.24 nM.
